From patent US6331520A, “Pharmaceutical compositions of peptides having low solubility in physiological medium” (Applied Research Systems ARS Holding NV, priority 1997, dated 2001)
≈ marks a conversion by molar mass, not a printed value. Non-standard residues stand in square brackets, D forms with d. Residues, ends and D or L forms follow the SMILES beside them. *: point of attachment. dPhe(4-Cl) = N[C@H](Cc1ccc(Cl)cc1)C(=O)O; d2Nal = N[C@H](Cc1ccc2ccccc2c1)C(=O)O; Lys(iPr) = CC(C)NCCCC[C@H](N)C(=O)O; d3Pal = N[C@H](Cc1cccnc1)C(=O)O; Nicotinoyl = O=C(c1cccnc1)*

What was measured:
Format in all cases: physicochemical
[1] = Solubilisation studies for antide: effect of pH (WFI, saline, acids)
Description: Solubilisation studies were carried out to study the effect of:
pH (solutions were acidified with either acetic acid or hydrochloric acid)
(§1) Saline used in these studies corresponds to 0.9% sodium chloride solution.
(§2) Following the visual analysis, a number of solutions were selected for further quantitative determination of the solubility by filtration (0.45 μm filters) and appropriate dilution using the RP-HPLC method described above.
Tables 3 to 7 summarise the observations collected in order to obtain information on the solubility behaviour of antide in water for injectables (WFI), WFI acidified by HCl or acetic acid, saline and saline acidified by acetic acid. In agreement with previous studies, the solubility of antide increased as the pH decreased.

[2] = Solubilisation studies for antide: effect of hydrotropic agents in saline; conditions: for Solubility: antide 5 mg/ml added
Text: hydrotropic agents (nicotinamide, sodium saccharin, sodium salicylate, sodium benzoate, histidine hydrochloride, thiamine hydrochloride, phenylalanine).
as §1, §2
The effect of different hydrotropic agents (1.5% & 15% w/w) in saline solutions was also evaluated and is described in Tables 8 and 9.

[3] = Stability of nicotinamide/antide formulations; set-up: Stability (antide found): unit not given here
Description: RP-HPLC gradient elution, C-18 (e.g. Vydac 218 TP54, 250×4.6 mm) column. UV detection at 215 nm, injection volume 15 μl, mobile phase A: pH 4.5 phosphate buffer (0.1 M), mobile phase B: acetonitrile, flow rate=1.0 ml/min, runtime=23 min. External standard solution concentrations of 100 μg/ml were injected during analysis. The gradient was: 77% A, 23% B to 52% A, 48% B […].
Four formulations of antide and nicotinamide at different concentration ratios and adjusted to pH 5 were prepared and tested over 3 months at +40° C., +25° C. and +4° C.

[4] = Solubilisation studies for hGRF; conditions: for solubility thermodynamic at 1 week: 0.9% NaCl
Description: Solubilisation studies were carried out to study the effect of saline and pH 7 phosphate buffer on the solubility of hGRF.
Qunatitation of the amount of hGRF dissolved was performed by filtration of the equilibrated solution through a 0.45 μm filter prior to dilution and analysis by HPLC.

CC(=O)N[C@H](Cc1ccc2ccccc2c1)C(=O)N[C@H](Cc1ccc(Cl)cc1)C(=O)N[C@H](Cc1cccnc1)C(=O)N[C@@H](CO)C(=O)N[C@@H](CCCCNC(=O)c1cccnc1)C(=O)N[C@H](CCCCNC(=O)c1cccnc1)C(=O)N[C@@H](CC(C)C)C(=O)N[C@@H](CCCCNC(C)C)C(=O)N1CCC[C@H]1C(=O)N[C@H](C)C(N)=O [antide] (Ac-[d2Nal][dPhe(4-Cl)][d3Pal]SK(Nicotinoyl)[dK](Nicotinoyl)L[Lys(iPr)]P[dA]-NH2)
Solubility ([1]; 10 mg/ml in saline, pH 3.0 or 4.6, 4% acetic acid): not soluble
Solubility ([1]; WFI, 10 mg/ml nominal amount added, pH 4.40): 8130 µg/mL (≈ 5110 µM)
Solubility ([1]; phosphate buffered saline, aqueous buffer, read-out: solubility): 16 µg/mL (≈ 10.1 µM)
Solubility ([1]; saline solution, natural pH 5.04): 25 µg/mL (≈ 15.7 µM)
solubility thermodynamic ([1]; water, without further acidification, read-out: solubility limit): 8100 µg/mL (≈ 5090 µM)
solubilisation ([2]; 1.5% w/w hydrotropic agents in saline, antide 10 mg/ml): not effective
antide solubilised ([2]; 5% nicotinamide in saline): about 0.5 mg/ml
antide solubilised ([2]; 20% nicotinamide in saline): 8.5 mg/mL
Solubility ([2]; saline + 15% nicotinamide, pH 5.79): 3320 µg/mL
Solubility ([2]; saline + 15% sodium benzoate, pH 6.69): 72 µg/mL
Solubility ([2]; saline + 15% sodium salicylate, pH 5.81): 210 µg/mL
Solubility ([2]; saline + 15% thiamine hydrochloride, pH 3.30): 3010 µg/mL
Solubility ([2]; saline + histidine hydrochloride (5%), pH 4.17): 76 µg/mL
Solubility ([2]; saline + phenylalanine (1.7%), pH 4.59): 66 µg/mL
Stability (antide found) ([3]; antide 1 mg/ml, nicotinamide 5%, +4° C., 4W): 0.9
Stability (antide found) ([3]; antide 1 mg/ml, nicotinamide 5%, +4° C., 12W): 1.0
Stability (antide found) ([3]; antide 1 mg/ml, nicotinamide 5%, +25° C., 1W): 0.9
Stability (antide found) ([3]; antide 1 mg/ml, nicotinamide 5%, +25° C., 4W): 0.9
Stability (antide found) ([3]; antide 1 mg/ml, nicotinamide 5%, +25° C., 12W): 1.0
Stability (antide found) ([3]; antide 1 mg/ml, nicotinamide 5%, +40° C., 1W): 1.0
Stability (antide found) ([3]; antide 1 mg/ml, nicotinamide 5%, +40° C., 4W): 0.9
Stability (antide found) ([3]; antide 1 mg/ml, nicotinamide 5%, +40° C., 12W): 1.0
Stability (antide found) ([3]; antide 1 mg/ml, nicotinamide 5%, T = 0): 1.0
Stability (antide found) ([3]; antide 1 mg/ml, nicotinamide 25%, +4° C., 4W): 1.0
Stability (antide found) ([3]; antide 1 mg/ml, nicotinamide 25%, +4° C., 12W): 1.1
Stability (antide found) ([3]; antide 1 mg/ml, nicotinamide 25%, +25° C., 1W): 1.0
Stability (antide found) ([3]; antide 1 mg/ml, nicotinamide 25%, +25° C., 4W): 1.0
Stability (antide found) ([3]; antide 1 mg/ml, nicotinamide 25%, +25° C., 12W): 1.1
Stability (antide found) ([3]; antide 1 mg/ml, nicotinamide 25%, +40° C., 1W): 1.0
Stability (antide found) ([3]; antide 1 mg/ml, nicotinamide 25%, +40° C., 4W): 1.0
Stability (antide found) ([3]; antide 1 mg/ml, nicotinamide 25%, +40° C., 12W): 1.1
Stability (antide found) ([3]; antide 1 mg/ml, nicotinamide 25%, T = 0): 1.0
Stability (antide found) ([3]; antide 10 mg/ml, nicotinamide 5%, +4° C., 1W): 10.3
Stability (antide found) ([3]; antide 10 mg/ml, nicotinamide 5%, +4° C., 4W): 10.0
Stability (antide found) ([3]; antide 10 mg/ml, nicotinamide 5%, +4° C., 12W): 10.5
Stability (antide found) ([3]; antide 10 mg/ml, nicotinamide 5%, +25° C., 1W): gel
Stability (antide found) ([3]; antide 10 mg/ml, nicotinamide 5%, +25° C., 4W): gel
Stability (antide found) ([3]; antide 10 mg/ml, nicotinamide 5%, +25° C., 12W): gel
Stability (antide found) ([3]; antide 10 mg/ml, nicotinamide 5%, +40° C., 1W): gel
Stability (antide found) ([3]; antide 10 mg/ml, nicotinamide 5%, +40° C., 4W): gel
Stability (antide found) ([3]; antide 10 mg/ml, nicotinamide 5%, +40° C., 12W): gel
Stability (antide found) ([3]; antide 10 mg/ml, nicotinamide 5%, T = 0): 9.7
Stability (antide found) ([3]; antide 10 mg/ml, nicotinamide 25%, +4° C., 4W): 10.1
Stability (antide found) ([3]; antide 10 mg/ml, nicotinamide 25%, +25° C., 1W): 9.8
Stability (antide found) ([3]; antide 10 mg/ml, nicotinamide 25%, +25° C., 4W): 9.5
Stability (antide found) ([3]; antide 10 mg/ml, nicotinamide 25%, +25° C., 12W): 11.1
Stability (antide found) ([3]; antide 10 mg/ml, nicotinamide 25%, +40° C., 1W): 10.7
Stability (antide found) ([3]; antide 10 mg/ml, nicotinamide 25%, +40° C., 4W): 9.4
Stability (antide found) ([3]; antide 10 mg/ml, nicotinamide 25%, +40° C., 12W): 10.2
Stability (antide found) ([3]; antide 10 mg/ml, nicotinamide 25%, T = 0): 9.8
chemical degradation ([3]; antide/nicotinamide formulations, after 3 months): No chemical degradation

CC[C@H](C)[C@H](NC(=O)[C@H](C)NC(=O)[C@H](CC(=O)O)NC(=O)[C@H](C)NC(=O)[C@@H](N)Cc1ccc(O)cc1)C(=O)N[C@@H](Cc1ccccc1)C(=O)N[C@H](C(=O)N[C@@H](CC(N)=O)C(=O)N[C@@H](CO)C(=O)N[C@@H](Cc1ccc(O)cc1)C(=O)N[C@@H](CCCNC(=N)N)C(=O)N[C@@H](CCCCN)C(=O)N[C@H](C(=O)N[C@@H](CC(C)C)C(=O)NCC(=O)N[C@@H](CCC(N)=O)C(=O)N[C@@H](CC(C)C)C(=O)N[C@@H](CO)C(=O)N[C@@H](C)C(=O)N[C@@H](CCCNC(=N)N)C(=O)N[C@@H](CCCCN)C(=O)N[C@@H](CC(C)C)C(=O)N[C@@H](CC(C)C)C(=O)N[C@@H](CCC(N)=O)C(=O)N[C@@H](CC(=O)O)C(=O)N[C@H](C(=O)N[C@@H](CCSC)C(=O)N[C@@H](CO)C(=O)N[C@@H](CCCNC(=N)N)C(N)=O)[C@@H](C)CC)C(C)C)[C@@H](C)O [hGRF, hGRF(1-29)-NH2]
solubility thermodynamic at 1 week ([4]; 25° C., one week): 42 µg/mL (≈ 12.5 µM)
solubility thermodynamic at 1 week ([4]; 40° C. for one week): 97 µg/mL (≈ 28.9 µM)
solubility at 1 week ([4]; 25° C., WFI, one week): > 1000 µg/mL
Solubility ([4]; 40° C. for one week, 0.9% NaCl + 5% nicotinamide): 875 µg/mL
solubility thermodynamic at 5 days ([4]; PBS, pH 7, aqueous buffer, 25° C., 5 days): 32 µg/mL (≈ 9.53 µM)
